Assay results taken from patent US5866570A, “Treatment of vascular leakage and related syndrome such as septic shock by administration of metalloproteinase inhibitors” (Wisconsin Alumni Research Foundation, priority 1994, dated 1999).

Tests used:
S180 tumors = conditions: cited from earlier work
mouse-embryo fibroblasts = conditions: cited from earlier work
[1] = test system: HT-1080 cells (human fibrosarcoma); test: in vitro invasion assay through matrigel (Transwell); assay type: cell-based
Experimental: Razoxane, various bis(hydroxylated)(2,6-dioxopiperazine)s, and various hydrophobic analogs were tested in an in vitro assay for inhibition of tumor cell penetration of a reconstituted basement membrane, matrigel, isolated from the Englegbreth-Holm-Swarm (EHS) tumor (disclosed in Kleinman et al., Biochem. (1982), 24, 6188-6193) first described by Albini et al, Cancer Res. (1987) 47, 3234-3245. An 8 μm pore filter coated with matrigel separates a lower compartment containing a chemoattractant and an upper compartment containing the cells and test compound. In particular, the following compounds were tested: razoxane, (1α, 2α, 4α, 5α)-4,4'-(4,5-dihydroxy-1,2-cyclohexanediyl)bis(2,6-piperazinedione); (1α, 2α, 4β, 5β)-4,4'-(4,5-dihydroxy-1,2-cyclohexanediyl)bis(2,6-piperazinedione);(1β, 2α,4α,5α)-4,4'-(4,5-dihydroxy-1,2-cyclohexanediyl)bis(2,6-piperazinedione); (1β, 2α, 4α,5β)-4,4'-(4,5-dihydroxy-1,2-cyclohexanediyl)bis(2,6piperazinedione); (1α, 2β, 4α,5β)-4,4'-(4,5-dihydroxy-1,2cyclohexanediyl)bis(2,6-piperazinedione); N,N'-cyclohexane-1,2-diylbis[N(2-ethoxy-2-oxoethyl)]glycine; N,N'-4-cyclohexene-1,2-diylbis[N-(2-ethoxy-2-oxoethyl)-glycine ester; (3aα, 5β, 6β, 7aα)-4,4'-(hexahydro-2,2-dimethyl1,3-benzodioxole-5,6-diyl)bis(2,6-piperazinedione); (3aα, 5α, 6α, 7aα)-4,4'-(hexahydro-2,2-dimethyl-1,3-benzodioxole-5,6-diyl)bis(2,6- piperazinedione); (3aα, 5α, 6β, 7aα)-4,4'-(hexahydro-2,2-dimethyl-1,3-benzodioxole-5,6-diyl)bis-2,6- piperazinedione; (3aα, 5β, 6α, 7aβ)-4,4'-(hexahydro-2,2dimethyl-1,3-benzodioxole-5,6-diyl)bis(2,6-piperazinedione); and (3aα, 5α, 6β, 7aβ)-4,4'-(hexahydro-2,2-dimethyl-1,3-benzodioxole-5,6-diyl) bis(2,6piperazinedione). Metastatic cells are able to degrade the basement membrane protein barrier and migrate through the pores of the filter whereas non-metastatic cells remain on the upper surface. The cells that pass to the under side of the filter are then counted under a microscope. […] Variations of this assay have been used to correlate this in vitro invasion with metastatic potential in vivo (Albini et al. (Id.); Hendrix et al. Cancer Letters (1987); 38, 127-247; Repesh L. A., Invasion Metastasis (1989) 9, 192-208 to select for more highly invasive cells (Teranova et al., Proc. Nat. Acad. Sci., (1986), 83, 465, 464; Tullberg et al., Invasion Metastasis, (1989), 9, 13-26; Sefer et al., Biotechniques, (1990), 9, 324-331), and to test compounds for inhibition (Nakajima et al., Cancer Res. (1989), 49, 1698-1756).
This method has been improved to increase the number of assays which may be performed and analyzed per day. In particular, such improvement comprises the use of disposable Transwells (Costar) units described by Repesh et al., Invasion Metastasis, (1989), 9, 192-208, which consist of an 8 μm pore filter attached to an insert that fits in a 24 well culture plate. Matrigel concentration is titrated from zero to complete inhibition of motility of each invasive cell line used in the assay and for each batch of matrigel. The matrigel concentration which yields 50% or greater inhibition of motility in a 6 hr assay (usually from 15 to 50 μg of protein per filter) is chosen for determination of invasion. Motility of cells through the 8 μm filters is not by passive diffusion since the pore size is smaller than the cells, and is determined in the same chamber in the absence of matrigel. Motility is stimulated two-fold by the presence of fibroblast conditioned medium (3T3 cells) as a chemoattractant (data not shown). The cell lines used are HT-1080, a human fibrosarcoma, and MDA-MB-231, a human breast carcinoma (both available from the American Type Tissue Culture). These cell lines express both the 72 kD and the 92 kD collagenase type IV as determined by zymography (data not shown).
For inhibition studies, 5×10^5 cells are plated in 200 μl of DMEM+0.1% BSA+the inhibitor (or appropriate solvent control) into the upper chamber of the Transwell. […]

retired bred BALB/C mice = test: septic shock induced by i.v. endotoxin (E. coli 026:B6); assay type: in vivo; conditions: razoxane 100 μg/g i.p. before 200 μg endotoxin i.v.; heparin
Experimental: Two retired bred BALB/C mice were injected with 100 μg of endotoxin and 3 units of heparin i.v., followed by 10 units heparin subcutaneously. Another two mice were treated the same except with 200 μg of endotoxin. All died within 24 h.
Six retired bred BALB/C mice were treated with razoxane (100 μg/g body weight i.p.). The mice were then injected with 200 μg of endotoxin and 3 units of heparin i.v., followed by 10 units heparin subcutaneously.

BALB/C mice = test: septic shock induced by galactosamine and endotoxin (E. coli 026:B6); assay type: in vivo
Experimental: Ten BALB/C mine were injected i.p. with 18 mg of D-galactosamine and 1 μg of endotoxin. Three units of heparin were given i.v. and 10 units heparin were given subcutaneously at 30 min to prevent intravascular coagulation.
Ten BALB/C mice were treated with razoxane (100 μg/g body weight i.p., dissolved in 1% carboxymethyl-cellulose in normal saline). The mice were then injected i.p. with 18 mg of D-galactosamine and 1 μg of endotoxin. Three units of heparin were given i.v. and 10 units heparin were given subcutaneously to each mice at 30 min.

V-79A fibroblasts = conditions: tissue culture; cited from earlier work
[2] = galactosamine + endotoxin1 (E. coli 026:B6)

| SMILES | inhibition of S180 tumors (S180 tumors; 5 doses at 30 mg/kg) [%] | calculated ratio of maximum tolerated dose to the dose required for 90% inhibition of S180 tumor growth (S180 tumors; therapeutic index in vivo) | IC50, inhibition of [3H]thymidine incorporation (mouse-embryo fibroblasts) [µg/mL] | consistent inhibition of invasion without effect on motility ([1]; from 250 μM to 1 mM) | mice surviving more than 24 h (retired bred BALB/C mice) | Survival/Total Ratio after 24 h (BALB/C mice; [2]) | Survival/Total Ratio after 48 h (BALB/C mice; [2]) | Survival/Total Ratio after 72 h (BALB/C mice; [2]) | mice surviving more than 24 h (BALB/C mice; razoxane 100 μg/g i.p. before 18 mg D-galactosamine + 1 μg endotoxin i.p., heparin) | cytotoxic activity (V-79A fibroblasts) | inhibition at 125 µM ([1]; Homo sapiens, HT-1080, at 125 μM, 6 hour assay, read-out: maximum inhibition of invasion) [%] | inhibition of invasion ([1]; preliminary screen) | effect on cell motility ([1]; preliminary screen, no matrigel) |
| --- | --- | --- | --- | --- | --- | --- | --- | --- | --- | --- | --- | --- | --- |
| CC(CN1CC(=O)NC(=O)C1)N1CC(=O)NC(=O)C1 (stereo not shown) [razoxane] | 93 | 9.8 | 0.5 | could not be demonstrated | Two out of six | 2/10 | 2/10 | 2/10 | Two out of ten | has cytoxic activity |  |  |  |
| CC1(C)O[C@H]2C[C@H](N3CC(=O)NC(=O)C3)[C@@H](N3CC(=O)NC(=O)C3)C[C@@H]2O1 (relative stereo) [Compound 80, (3aα, 5β, 6α, 7aβ)-4,4'-(hexahydro-2,2-dimethyl-1,3-benzodioxole-5,6-diyl)bis(2,6-piperazinedione)] |  |  |  |  |  |  |  |  |  |  | 62 | inhibit invasion | without inhibiting cell motility |
